The target of the assay is CFTR-mediated chloride transport (Homo sapiens, UniProt P13569). The assay is classed as cell-based. Particulars: enteroid cells incubated with test compound 18-24 hours, acute 10 μM forskolin and 300 nM Compound III; for Max. Activity: % of chloride transport with 3 μM Compound A, 3 μM Compound II and 300 nM acute Compound III triple combination control. The essentials:
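Membrane-potential fluorescence AUC over 15 min quantified CFTR chloride transport after acute forskolin (10 μM), IBMX (100 μM) and Compound III (300 nM) in chloride-free buffer. Human enteroid cells were pretreated with compound for 18–24 h; % Activity is relative to 3 μM Compound A + 3 μM Compound II + 300 nM Compound III.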

The record followed here is US11866450B2, “Modulators of Cystic Fibrosis Transmembrane Conductance regulator, pharmaceutical compositions, methods of treatment, and process for making the modulators” (priority 2018, dated 2024).

Bounds are passed on as bounds.

Usually EC50 stands for the concentration needed to bring the measured effect to its halfway point.

Sequence of CFTR-mediated chloride transport (P13569 whole entry, looked up): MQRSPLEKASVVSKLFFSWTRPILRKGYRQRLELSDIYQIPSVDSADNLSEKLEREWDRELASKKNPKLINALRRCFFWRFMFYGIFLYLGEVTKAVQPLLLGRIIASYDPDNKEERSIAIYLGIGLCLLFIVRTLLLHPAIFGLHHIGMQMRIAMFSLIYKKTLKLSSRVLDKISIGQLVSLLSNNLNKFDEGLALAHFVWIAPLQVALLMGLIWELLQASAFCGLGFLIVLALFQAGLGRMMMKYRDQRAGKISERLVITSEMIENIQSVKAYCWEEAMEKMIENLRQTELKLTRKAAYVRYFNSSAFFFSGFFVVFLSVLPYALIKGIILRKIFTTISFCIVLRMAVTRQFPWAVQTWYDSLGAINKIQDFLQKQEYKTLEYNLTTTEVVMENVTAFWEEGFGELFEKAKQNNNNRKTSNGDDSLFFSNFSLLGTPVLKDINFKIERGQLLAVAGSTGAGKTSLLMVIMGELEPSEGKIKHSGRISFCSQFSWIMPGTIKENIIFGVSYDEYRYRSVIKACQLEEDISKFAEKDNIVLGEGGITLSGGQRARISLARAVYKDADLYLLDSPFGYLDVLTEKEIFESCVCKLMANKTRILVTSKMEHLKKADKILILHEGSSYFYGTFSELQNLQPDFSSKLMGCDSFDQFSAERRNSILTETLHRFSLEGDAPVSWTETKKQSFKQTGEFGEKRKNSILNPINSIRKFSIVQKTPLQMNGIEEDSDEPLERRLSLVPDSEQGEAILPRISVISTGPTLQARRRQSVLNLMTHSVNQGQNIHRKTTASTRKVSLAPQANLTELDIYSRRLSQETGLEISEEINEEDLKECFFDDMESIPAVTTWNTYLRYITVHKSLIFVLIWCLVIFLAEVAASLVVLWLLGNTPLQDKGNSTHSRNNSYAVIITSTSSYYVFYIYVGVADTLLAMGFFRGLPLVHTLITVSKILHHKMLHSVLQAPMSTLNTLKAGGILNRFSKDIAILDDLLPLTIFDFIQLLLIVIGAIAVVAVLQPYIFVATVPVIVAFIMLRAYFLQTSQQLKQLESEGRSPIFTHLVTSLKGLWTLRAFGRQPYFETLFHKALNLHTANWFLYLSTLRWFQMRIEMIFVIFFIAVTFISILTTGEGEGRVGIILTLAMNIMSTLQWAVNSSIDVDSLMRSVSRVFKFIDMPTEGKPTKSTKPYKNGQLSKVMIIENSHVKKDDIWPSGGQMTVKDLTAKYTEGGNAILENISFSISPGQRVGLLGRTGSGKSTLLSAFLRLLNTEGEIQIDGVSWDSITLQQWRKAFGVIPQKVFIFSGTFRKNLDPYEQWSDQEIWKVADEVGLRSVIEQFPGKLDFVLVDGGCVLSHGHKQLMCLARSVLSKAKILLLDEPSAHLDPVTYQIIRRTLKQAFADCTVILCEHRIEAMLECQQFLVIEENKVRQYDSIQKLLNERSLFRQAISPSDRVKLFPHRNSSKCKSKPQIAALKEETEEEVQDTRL

`CC(C)(C)CCC1C(=O)N(c2ccc3c(n2)N2C[C@@H](CCCNc4cccc(n4)S(=O)(=O)NC3=O)CC2(C)C)CC1(C)C` (stereo partly drawn) [Compound 98, (14S)-8-[3-(3,3-Dimethylbutyl)-4,4-dimethyl-2-oxopyrrolidin-1-yl]-12,12-dimethyl-2λ^6-thia-3,9,11,18,23-pentaazatetracyclo[17.3.1.111,14.05,10]tetracosa-1(22),5,7,9,19(23),20-hexaene-2,2,4-trione]: the concentration for a half-maximal effect (EC50) was under 1000 nM and the “Max. Activity” value is listed as “++ (++ is 30-60%)”.

As for `CC1(CC2CCN(c3ccc4c(n3)N3C[C@@H](CCCNc5cccc(n5)S(=O)(=O)NC4=O)CC3(C)C)C2=O)CCCCC1` (stereo partly drawn) [Compound 101, (14S)-12,12-dimethyl-8-{3-[(1-methylcyclohexyl)methyl]-2-oxopyrrolidin-1-yl}-2λ^6-thia-3,9,11,18,23-pentaazatetracyclo[17.3.1.111,14.05,10]tetracosa-1(22),5,7,9,19(23),20-hexaene-2,2,4-trione], the EC50 is under 1000 nM and the “Max. Activity” value is “++ (++ is 30-60%)”.

`CC(C)(C)CCCC1CCN(c2ccc3c(n2)N2C[C@@H](CCCNc4cccc(n4)S(=O)(=O)NC3=O)CC2(C)C)C1=O` (stereo partly drawn) [Compound 102, (14S)-8-[3-(4,4-Dimethylpentyl)-2-oxopyrrolidin-1-yl]-12,12-dimethyl-2λ^6-thia-3,9,11,18,23-pentaazatetracyclo[17.3.1.111,14.05,10]tetracosa-1(22),5,7,9,19(23),20-hexaene-2,2,4-trione]: the EC50 is under 1000 nM and the “Max. Activity” value was “+++ (+++ is >60%)”.

With `CC(C)(C)CCN1CCN(c2ccc3c(n2)N2C[C@@H](CCCNc4cccc(n4)S(=O)(=O)NC3=O)CC2(C)C)C1=O` [Compound 128, (14S)-8-[3-(3,3-dimethylbutyl)-2-oxoimidazolidin-1-yl]-12,12-dimethyl-2λ^6-thia-3,9,11,18,23-pentaazatetracyclo[17.3.1.111,14.05,10]tetracosa-1(22),5,7,9,19(23),20-hexaene-2,2,4-trione], the concentration giving a half-maximal response (EC50) is under 1000 nM and the “Max. Activity” value is reported as “+++ (+++ is >60%)”.

Consider `CN1CCCCC2CN(c3nc(-n4ccc(OCCC5(C(F)(F)F)CC5)n4)ccc3C(=O)NS(=O)(=O)c3ccc1nc3)C(C)(C)C2` (stereo not drawn) [Compound 132, 12,12,19-trimethyl-8-(3-{2-[1-(trifluoromethyl)cyclopropyl]ethoxy}-1H-pyrazol-1-yl)-2λ^6-thia-3,9,11,19,21-pentaazatetracyclo[18.2.2.111,14.05,10]pentacosa-1(23),5,7,9,20(24),21-hexaene-2,2,4-trione], for which the EC50 was under 1000 nM and the “Max. Activity” value is listed as “++ (++ is 30-60%)”.

On to `CC1(C)C[C@@H]2CCCNc3cccc(n3)S(=O)(=O)NC(=O)c3ccc(N4CCC(OCCC5(C(F)(F)F)CC5)C4=O)nc3N1C2` (stereo partly drawn) [Compound 158, (14S)-12,12-Dimethyl-8-(2-oxo-3-{2-[1-(trifluoromethyl)cyclopropyl]ethoxy}pyrrolidin-1-yl)-2λ^6-thia-3,9,11,18,23-pentaazatetracyclo[17.3.1.111,14.05,10]tetracosa-1(22),5,7,9,19(23),20-hexaene-2,2,4-trione], for which the EC50 is under 1000 nM and the “Max. Activity” value was “+++ (+++ is >60%)”.

With `CC(C)(C)CCN1CCN(c2ccc3c(n2)N2CC(CCCn4ccc(n4)S(=O)(=O)NC3=O)CC2(C)C)C1=O` (stereo not drawn) [Compound 168, 4-[3-(3,3-dimethylbutyl)-2-oxoimidazolidin-1-yl]-20,20-dimethyl-10λ^6-thia-1,3,9,14,22-pentaazatetracyclo[16.2.1.111,14.02,7]docosa-2,4,6,11(22),12-pentaene-8,10,10-trione], the EC50 was over 3000 nM and the “Max. Activity” value is on record as “+ (+ is <30%)”.

With `CC(C)(C)CCCN1CCN(c2ccc3c(n2)N2CC(CCCn4ccc(n4)S(=O)(=O)NC3=O)CC2(C)C)C1=O` (stereo not drawn) [Compound 169, 4-[3-(4,4-dimethylpentyl)-2-oxoimidazolidin-1-yl]-20,20-dimethyl-10λ^6-thia-1,3,9,14,22-pentaazatetracyclo[16.2.1.111,14.02,7]docosa-2,4,6,11(22),12-pentaene-8,10,10-trione], the EC50 was under 1000 nM and the “Max. Activity” value is given as “++ (++ is 30-60%)”.

Regarding `CC1(C)C[C@H]2CCCn3ccc(n3)S(=O)(=O)NC(=O)c3ccc(-n4ccc(OCCC5C6(CC6)C56CC6)n4)nc3N1C2` [Compound 186, (18R)-4-[3-(2-{dispiro[2.0.2.1]heptan-7-yl}ethoxy)-1H-pyrazol-1-yl]-20,20-dimethyl-10λ^6-thia-1,3,9,14,22-pentaazatetracyclo[16.2.1.111,14.02,7]docosa-2,4,6,11(22),12-pentaene-8,10,10-trione], the EC50 was under 1000 nM and the “Max. Activity” value is “+ (+ is <30%)”.

On to `CC(C)(C)CCCN1CCN(c2ccc3c(n2)N2C[C@@H](CCCNc4cccc(n4)S(=O)(=O)NC3=O)CC2(C)C)C1=O` [Compound 193, (14S)-8-[3-(4,4-dimethylpentyl)-2-oxoimidazolidin-1-yl]-12,12-dimethyl-2λ^6-thia-3,9,11,18,23-pentaazatetracyclo[17.3.1.111,14.05,10]tetracosa-1(22),5,7,9,19(23),20-hexaene-2,2,4-trione], for which the EC50 was under 1000 nM and the “Max. Activity” value was “+++ (+++ is >60%)”.

Consider `CC1(C)C[C@@H]2CCCNc3cccc(n3)S(=O)(=O)NC(=O)c3ccc(N4CCN(C5CCCCC5)C4=O)nc3N1C2` [Compound 200, (14S)-8-(3-cyclohexyl-2-oxoimidazolidin-1-yl)-12,12-dimethyl-2λ^6-thia-3,9,11,18,23-pentaazatetracyclo[17.3.1.111,14.05,10]tetracosa-1(22),5,7,9,19(23),20-hexaene-2,2,4-trione], for which the EC50 was under 1000 nM and the “Max. Activity” value was “+ (+ is <30%)”.

On to `CC1(C)C[C@@H]2CCCNc3cccc(n3)S(=O)(=O)NC(=O)c3ccc(N4CCN(CCCC5(C(F)(F)F)CC5)C4=O)nc3N1C2` [Compound 205, (14S)-12,12-Dimethyl-8-(2-oxo-3-{3-[1-(trifluoromethyl)cyclopropyl]propyl}imidazolidin-1-yl)-2λ^6-thia-3,9,11,18,23-pentaazatetracyclo[17.3.1.111,14.05,10]tetracosa-1(22),5,7,9,19(23),20-hexaene-2,2,4-trione], for which the EC50 is under 1000 nM and the “Max. Activity” value was “+++ (+++ is >60%)”.

As for `CC1CCC2CN(c3nc(N4CCN(CCC(C)(C)C)C4=O)ccc3C(=O)NS(=O)(=O)c3cccc(n3)N1)C(C)(C)C2` (stereo not drawn) [Compound 209, 8-[3-(3,3-Dimethylbutyl)-2-oxoimidazolidin-1-yl]-12,12,17-trimethyl-2λ^6-thia-3,9,11,18,23-pentaazatetracyclo[17.3.1.111,14.05,10]tetracosa-1(22),5,7,9,19(23),20-hexaene-2,2,4-trione], the EC50 is under 1000 nM and the “Max. Activity” value is recorded as “++ (++ is 30-60%)”.

Turning to `CC1CCC2CN(c3nc(N4CCN(CCC(C)(C)C)C4=O)ccc3C(=O)NS(=O)(=O)c3cccc(n3)N1)C(C)(C)C2` (stereo not drawn) [Compound 210, 8-[3-(3,3-dimethylbutyl)-2-oxoimidazolidin-1-yl]-12,12,17-trimethyl-2λ^6-thia-3,9,11,18,23-pentaazatetracyclo[17.3.1.111,14.05,10]tetracosa-1(22),5,7,9,19(23),20-hexaene-2,2,4-trione], the EC50 was under 1000 nM and the “Max. Activity” value is given as “++ (++ is 30-60%)”.

For `CC1(C)C[C@@H]2CCCNc3cccc(n3)S(=O)(=O)NC(=O)c3ccc(N4CCN(CCC5(C(F)(F)F)CC5)C4=O)nc3N1C2` [Compound 211, (14S)-12,12-Dimethyl-8-(2-oxo-3-{2-[1-(trifluoromethyl)cyclopropyl]ethyl}imidazolidin-1-yl)-2λ^6-thia-3,9,11,18,23-pentaazatetracyclo[17.3.1.111,14.05,10]tetracosa-1(22),5,7,9,19(23),20-hexaene-2,2,4-trione], the EC50 is under 1000 nM and the “Max. Activity” value is “++ (++ is 30-60%)”.

With `CC1(C)C[C@@H]2CCCNc3cccc(n3)S(=O)(=O)NC(=O)c3ccc(N4CC5CCCCN5C4=O)nc3N1C2` (stereo partly drawn) [Compound 213, (14S)-12,12-dimethyl-8-{3-oxo-octahydroimidazo[1,5-a]pyridin-2-yl}-2λ^6-thia-3,9,11,18,23-pentaazatetracyclo[17.3.1.111,14.05,10]tetracosa-1(23),5(10),6,8,19,21-hexaene-2,2,4-trione], the EC50 was over 3000 nM and the “Max. Activity” value is listed as “+ (+ is <30%)”.

Regarding `CC1(C)C[C@@H]2CCCNc3cccc(n3)S(=O)(=O)NC(=O)c3ccc(N4CCN(CC5CCC(F)(F)CC5)C4=O)nc3N1C2` [Compound 214, (14S)-8-{3-[(4,4-Difluorocyclohexyl)methyl]-2-oxoimidazolidin-1-yl}-12,12-dimethyl-2λ^6-thia-3,9,11,18,23-pentaazatetracyclo[17.3.1.111,14.05,10]tetracosa-1(22),5,7,9,19(23),20-hexaene-2,2,4-trione], the concentration for a half-maximal effect (EC50) is under 1000 nM and the “Max. Activity” value was “++ (++ is 30-60%)”.

For `CC1(C)CCC(CN2CCN(c3ccc4c(n3)N3C[C@@H](CCCNc5cccc(n5)S(=O)(=O)NC4=O)CC3(C)C)C2=O)CC1` [Compound 217, (14S)-8-{3-[(4,4-Dimethylcyclohexyl)methyl]-2-oxoimidazolidin-1-yl}-12,12-dimethyl-2λ^6-thia-3,9,11,18,23-pentaazatetracyclo[17.3.1.111,14.05,10]tetracosa-1(22),5,7,9,19(23),20-hexaene-2,2,4-trione], the EC50 is under 1000 nM and the “Max. Activity” value was “++ (++ is 30-60%)”.
